Test results taken from patent US11214803B2, “Modulators of YAP1 expression” (Ionis Pharmaceuticals, Inc., priority 2019, dated 2022).
Strand notation (5' to 3'): a small letter for the sugar, then the base; units joined by * are phosphorothioate-linked, units joined directly phosphodiester-linked; [ ] holds rarer units or linkages, { } end groups; capitals alone tell only the bases. e = 2'-O-(2-methoxyethyl) (MOE); k = constrained ethyl (cEt); [5mC] = 5-methylcytosine; d = 2'-deoxy (DNA); m = 2'-O-methyl

System: Yap1 mRNA
Assay: Dose-dependent inhibition of human Yap1 in SNU-449 cells (Example 9, RTS36584)
Assay type: cell-based
Details: free uptake; for % UTC (Yap1 mRNA): approximately 48 hours; for IC50: linear regression on a log/linear plot
Method in brief: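 SNU-449 cells (10,000/well) took up modified oligonucleotides by free uptake at a range of doses for about 48 h. Yap1 mRNA was quantified with primer-probe set RTS36584, normalised to RIBOGREEN total RNA and expressed as % untreated control; IC50 from linear regression on log/linear plot.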

Substance | % UTC (Yap1 mRNA) (31.3 nM) [% UTC] | % UTC (Yap1 mRNA) (125.0 nM) [% UTC] | % UTC (Yap1 mRNA) (500.0 nM) [% UTC] | % UTC (Yap1 mRNA) (2000.00 nM) [% UTC] | IC50 [nM]
1198895 (kG*kG*dA*dA*dA*dT*dT*dG*dT*d[5mC]*dT*k[5mC]*dA*kT*dG*k[5mC]; antisense) [compound 1198895] | 62 | 37 | 16 | 9 | 100
1198804 (kT*kG*dT*d[5mC]*dT*d[5mC]*dA*dT*dG*d[5mC]*d[5mC]*kT*eT*kA*eT*kA; antisense) [compound 1198804] | 71 | 48 | 19 | 5 | 100
1198529 (kT*kT*dA*dA*dA*dG*dT*dG*dT*dA*dT*eG*kT*e[5mC]*kA*eG; antisense) [compound 1198529] | 86 | 69 | 37 | 16 | 300
1198355 (kA*kA*kA*dG*dT*dG*dT*dA*dT*dG*dT*d[5mC]*kA*eG*kA*eA; antisense) [compound 1198355] | 63 | 34 | 10 | 4 | 100
1198719 (kG*eG*kA*dA*dA*dT*dT*dG*dT*d[5mC]*dT*d[5mC]*eA*eT*kG*k[5mC]; antisense) [compound 1198719] | 67 | 30 | 9 | 3 | 100
1198380 (kA*dG*dA*dG*dT*dA*dT*dG*dT*dG*dG*k[5mC]*eA*kA*eT*kA; antisense) [compound 1198380] | 72 | 55 | 27 | 11 | 100
1197193 (AGGATGCATGGTTTTT; chemistry not fully specified) [compound 1197193] | 85 | 52 | 24 | 11 | 200
1198243 (kG*kA*dT*dT*dT*dA*dG*dG*dA*dT*dG*e[5mC]*eA*eT*kG*kG; antisense) [compound 1198243] | 55 | 28 | 10 | 5 | < 30
1200784 (kT*kG*kT*d[5mC]*dT*mC*dA*dT*dG*d[5mC]*d[5mC]*dT*dT*kA*kT*kA; antisense) [compound 1200784] | 70 | 51 | 26 | 12 | 100
1198286 (kA*kA*kT*dT*dG*dT*d[5mC]*dT*d[5mC]*dA*dT*dG*k[5mC]*e[5mC]*kT*eT; antisense) [compound 1198286] | 64 | 45 | 22 | 8 | 100
1198818 (kT*kA*dT*dT*dA*dG*dA*dG*dT*dA*dT*kG*eT*kG*eG*k[5mC]) [compound 1198818] | 68 | 33 | 15 | 5 | 100
1198799 (k[5mC]*eT*kA*dA*dG*dT*dA*dA*dG*dG*dT*dT*eT*e[5mC]*k[5mC]*k[5mC]; antisense) [compound 1198799] | 62 | 35 | 13 | 4 | 100
1198656 (kG*k[5mC]*dA*d[5mC]*dT*dT*dT*dT*dA*d[5mC]*dA*dT*kT*eA*kG*eG; antisense) [compound 1198656] | 55 | 22 | 8 | 3 | < 30
1197216 (kA*kA*kA*dG*dT*dG*dT*dA*dT*dG*dT*d[5mC]*dA*kG*kA*kA; antisense) [compound 1197216] | 66 | 39 | 15 | 4 | 100
1200858 (kA*kA*kG*dT*dG*mU*dA*dT*dG*dT*d[5mC]*dA*dG*kA*kA*kG; antisense) [compound 1200858] | 71 | 39 | 14 | 4 | 100
1198543 (kA*kT*kT*dG*dT*d[5mC]*dT*d[5mC]*dA*dT*dG*d[5mC]*k[5mC]*kT*kT*eA; antisense) [compound 1198543] | 75 | 42 | 19 | 6 | 100
1198525 (kA*kG*dT*dG*dT*dA*dT*dG*dT*d[5mC]*dA*eG*kA*eA*kG*eA) [compound 1198525] | 62 | 26 | 8 | 1 | 40
1198900 (kA*kG*dA*dG*dT*dA*dT*dG*dT*dG*dG*k[5mC]*dA*kA*dT*kA; antisense) [compound 1198900] | 69 | 36 | 18 | 7 | 100
1198288 (kG*kA*kA*dA*dT*dT*dG*dT*d[5mC]*dT*d[5mC]*dA*kT*eG*k[5mC]*e[5mC]; antisense) [compound 1198288] | 77 | 43 | 17 | 7 | 100
